Data from ChEMBL document CHEMBL2040769, “Lipase-catalyzed preparation of chromomycin A₃ analogues and biological evaluation for anticancer activity” (Bioorg Med Chem Lett, 2012).

Experiments:
COLO 205 [1] = assay: Cytotoxicity against human COLO205 cells; type: functional, cell-based
A2780 [2] = assay: Cytotoxicity against human A2780 cells; type: functional, cell-based
A549 = assay: Cytotoxicity against human A549 cells; type: functional, cell-based
BXPC-3 = assay: Cytotoxicity against human BxPC3 cells; type: functional, cell-based
NIH3T3 = assay: Cytotoxicity against mouse NIH/3T3 cells; type: cell-based
COLO 205 [3] = assay: Ratio of IC50 for chromomycin to compound for human COLO205 cells; type: functional
A2780 [4] = assay: Ratio of IC50 for chromomycin to compound for human A2780 cells; type: functional
COLO 205 [5] = assay: Cytotoxicity against human COLO205 cells relative to chromomycin A3; type: functional; conditions: pooled result: one value given for 4 cell lines, strains, targets or settings

Compound	IC50 (COLO 205 [1]) [nM]	IC50 (A2780 [2]) [nM]	IC50 (A549) [nM]	IC50 (BXPC-3) [nM]	IC50 (NIH3T3) [nM]	Ratio IC50 (COLO 205 [3])	Ratio IC50 (A2780 [4])	Ratio IC50 (COLO 205 [5])
C=COC(=O)CCCCC(=O)O[C@H](C)[C@H](O)C(=O)[C@@H](OC)[C@@H]1Cc2cc3cc(O[C@H]4C[C@@H](O[C@@H]5C[C@@H](O)[C@H](OC)[C@@H](C)O5)[C@H](OC(C)=O)[C@@H](C)O4)c(C)c(O)c3c(O)c2C(=O)[C@H]1O[C@H]1C[C@H](O[C@H]2C[C@H](O[C@H]3C[C@@](C)(O)[C@@H](OC(C)=O)[C@H](C)O3)[C@H](O)[C@@H](C)O2)[C@H](O)[C@@H](C)O1	12	5	30	60	1200	8	5	3.2
CO[C@H]1[C@H](O)C[C@@H](O[C@@H]2C[C@H](Oc3cc4cc5c(c(O)c4c(O)c3C)C(=O)[C@@H](O[C@H]3C[C@H](O[C@H]4C[C@H](O[C@H]6C[C@@](C)(O)[C@@H](OC(C)=O)[C@H](C)O6)[C@H](O)[C@@H](C)O4)[C@H](O)[C@@H](C)O3)[C@H]([C@H](OC)C(=O)[C@@H](O)[C@@H](C)OC(C)=O)C5)O[C@H](C)[C@H]2OC(C)=O)O[C@@H]1C	65	250	200	450	800	–	–	0.34
CCC(=O)O[C@H](C)[C@H](O)C(=O)[C@@H](OC)[C@@H]1Cc2cc3cc(O[C@H]4C[C@@H](O[C@@H]5C[C@@H](O)[C@H](OC)[C@@H](C)O5)[C@H](OC(C)=O)[C@@H](C)O4)c(C)c(O)c3c(O)c2C(=O)[C@H]1O[C@H]1C[C@H](O[C@H]2C[C@H](O[C@H]3C[C@@](C)(O)[C@@H](OC(C)=O)[C@H](C)O3)[C@H](O)[C@@H](C)O2)[C@H](O)[C@@H](C)O1	125	250	500	300	1000	–	–	0.28
CCCC(=O)O[C@H](C)[C@H](O)C(=O)[C@@H](OC)[C@@H]1Cc2cc3cc(O[C@H]4C[C@@H](O[C@@H]5C[C@@H](O)[C@H](OC)[C@@H](C)O5)[C@H](OC(C)=O)[C@@H](C)O4)c(C)c(O)c3c(O)c2C(=O)[C@H]1O[C@H]1C[C@H](O[C@H]2C[C@H](O[C@H]3C[C@@](C)(O)[C@@H](OC(C)=O)[C@H](C)O3)[C@H](O)[C@@H](C)O2)[C@H](O)[C@@H](C)O1	35	65	185	450	750	–	–	0.45
CCCCCCCCCC(=O)O[C@H](C)[C@H](O)C(=O)[C@@H](OC)[C@@H]1Cc2cc3cc(O[C@H]4C[C@@H](O[C@@H]5C[C@@H](O)[C@H](OC)[C@@H](C)O5)[C@H](OC(C)=O)[C@@H](C)O4)c(C)c(O)c3c(O)c2C(=O)[C@H]1O[C@H]1C[C@H](O[C@H]2C[C@H](O[C@H]3C[C@@](C)(O)[C@@H](OC(C)=O)[C@H](C)O3)[C@H](O)[C@@H](C)O2)[C@H](O)[C@@H](C)O1	250	375	500	800	1000	–	–	0.17
CO[C@@H]1[C@H](O)C[C@@H](O[C@@H]2C[C@H](Oc3cc4cc5c(c(O)c4c(O)c3C)C(=O)[C@@H](O[C@H]3C[C@@H](O[C@H]4C[C@@H](O[C@H]6C[C@](C)(O)[C@@H](OC(C)=O)[C@H](C)O6)[C@H](O)[C@@H](C)O4)[C@H](O)[C@@H](C)O3)[C@H]([C@H](OC)C(=O)[C@@H](O)[C@@H](C)O)C5)O[C@H](C)[C@@H]2OC(C)=O)O[C@@H]1C [CHROMOMYCIN A3]	63	40	100	130	1000	–	–	–
